Measured values reported in PubChem BioAssay AID1963838 (Molecular Pharmacology Branch, DTP, NCI, 2024).

Test system: 855422-203-R-J1-PDC complex spheroid viability
Assay: Anticancer human tumor 855422-203-R-J1-PDC patient-derived bladder carcinoma cell line growth inhibition [POLQ]
Details: for IC50: curve of first compound; for viability, T/C: stronger effect = lower value; active = viability on the fitted dose curve at most 10% of control; inactive = the rest
Procedure, shortened: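 Three-cell-type spheroids modelling solid tumor plus stroma served as the readout system; POL inhibitors were tested individually and in combination, concentration ranges set by clinical Cmax where known.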

[1] = second compound 0.0316 µM, first compound 0.00316 µM
[2] = second compound 0.0316 µM, first compound 0.01 µM
[3] = second compound 0.0316 µM, first compound 0.0316 µM
[4] = second compound 0.0316 µM, first compound 0.1 µM
[5] = second compound 0.0316 µM, first compound 0.316 µM
[6] = second compound 0.0316 µM, first compound 1 µM
[7] = second compound 0.1 µM, first compound 0.00316 µM
[8] = second compound 0.1 µM, first compound 0.01 µM
[9] = second compound 0.1 µM, first compound 0.0316 µM
[10] = second compound 0.1 µM, first compound 0.1 µM
[11] = second compound 0.1 µM, first compound 0.316 µM
[12] = second compound 0.1 µM, first compound 1 µM
[13] = second compound 0.316 µM, first compound 0.00316 µM
[14] = second compound 0.316 µM, first compound 0.01 µM
[15] = second compound 0.316 µM, first compound 0.0316 µM
[16] = second compound 0.316 µM, first compound 0.1 µM
[17] = second compound 0.316 µM, first compound 0.316 µM
[18] = second compound 0.316 µM, first compound 1 µM
[19] = second compound 1 µM, first compound 0.00316 µM
[20] = second compound 1 µM, first compound 0.01 µM
[21] = second compound 1 µM, first compound 0.0316 µM
[22] = second compound 1 µM, first compound 0.1 µM
[23] = second compound 1 µM, first compound 0.316 µM
[24] = second compound 1 µM, first compound 1 µM
[25] = second compound 3.16 µM, first compound 0.00316 µM
[26] = second compound 3.16 µM, first compound 0.01 µM
[27] = second compound 3.16 µM, first compound 0.0316 µM
[28] = second compound 3.16 µM, first compound 0.1 µM
[29] = second compound 3.16 µM, first compound 0.316 µM
[30] = second compound 3.16 µM, first compound 1 µM
[31] = second compound 10 µM, first compound 0.00316 µM
[32] = second compound 10 µM, first compound 0.01 µM
[33] = second compound 10 µM, first compound 0.0316 µM
[34] = second compound 10 µM, first compound 0.1 µM
[35] = second compound 10 µM, first compound 0.316 µM
[36] = second compound 10 µM, first compound 1 µM
[37] = second compound 0.0316 µM, first compound 3.16 µM
[38] = second compound 0.0316 µM, first compound 10 µM
[39] = second compound 0.1 µM, first compound 3.16 µM
[40] = second compound 0.1 µM, first compound 10 µM
[41] = second compound 0.316 µM, first compound 3.16 µM
[42] = second compound 0.316 µM, first compound 10 µM
[43] = second compound 1 µM, first compound 3.16 µM
[44] = second compound 1 µM, first compound 10 µM
[45] = second compound 3.16 µM, first compound 3.16 µM
[46] = second compound 3.16 µM, first compound 10 µM
[47] = second compound 10 µM, first compound 3.16 µM
[48] = second compound 10 µM, first compound 10 µM
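Also: spheroids exposed to compounds for seven days before readout.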

C=CCn1c(=O)c2cnc(Nc3ccc(N4CCN(C)CC4)cc3)nc2n1-c1cccc(C(C)(C)O)n1 + Cc1cccc(N(C)C(=O)C2C(O)CCN2c2nc(C)cc(C(F)(F)F)c2C#N)c1
> 1000 nM: IC50 (second compound 0.0316 µM) | IC50 (second compound 0.1 µM) | IC50 (second compound 0.316 µM) | IC50 (second compound 1 µM) | IC50 (second compound 3.16 µM) | IC50 (second compound 10 µM)
inactive: viability, T/C [1] 109% | viability, T/C [2] 124% | viability, T/C [3] 98% | viability, T/C [4] 100% | viability, T/C [5] 113% | viability, T/C [6] 148% | viability, T/C [7] 110% | viability, T/C [8] 122% | viability, T/C [9] 93% | viability, T/C [10] 99% | viability, T/C [11] 124% | viability, T/C [12] 175% | viability, T/C [13] 102% | viability, T/C [14] 101% | viability, T/C [15] 95.7% | viability, T/C [16] 101% | viability, T/C [17] 126% | viability, T/C [18] 173% | viability, T/C [19] 87.7% | viability, T/C [20] 112% | viability, T/C [21] 91.1% | viability, T/C [22] 118% | viability, T/C [23] 124% | viability, T/C [24] 165% | viability, T/C [25] 91.4% | viability, T/C [26] 107% | viability, T/C [27] 100% | viability, T/C [28] 105% | viability, T/C [29] 115% | viability, T/C [30] 186% | viability, T/C [31] 119% | viability, T/C [32] 105% | viability, T/C [33] 115% | viability, T/C [34] 137% | viability, T/C [35] 208% | viability, T/C [36] 123%

CCc1c2c(nc3ccc(O)cc13)-c1cc3c(c(=O)n1C2)COC(=O)[C@]3(O)CC + Cc1cccc(N(C)C(=O)C2C(O)CCN2c2nc(C)cc(C(F)(F)F)c2C#N)c1
inactive: viability, T/C [1] 52.3% | viability, T/C [2] 9.87% | viability, T/C [7] 53.6% | viability, T/C [8] 14.6% | viability, T/C [13] 46.3% | viability, T/C [14] 13.7% | viability, T/C [19] 44.8% | viability, T/C [20] 15.2% | viability, T/C [25] 40% | viability, T/C [26] 12.1% | viability, T/C [31] 28.5% | viability, T/C [32] 11.5%
3.34 nM: IC50 (second compound 0.0316 µM)
active: viability, T/C [3] 7.42% | viability, T/C [4] 5.03% | viability, T/C [5] 3.07% | viability, T/C [6] 1.53% | viability, T/C [9] 7.37% | viability, T/C [10] 4.23% | viability, T/C [11] 3.04% | viability, T/C [12] 1.53% | viability, T/C [15] 6.83% | viability, T/C [16] 5.76% | viability, T/C [17] 2.86% | viability, T/C [18] 1.53% | viability, T/C [21] 8.04% | viability, T/C [22] 5.03% | viability, T/C [23] 2.97% | viability, T/C [24] 1.31% | viability, T/C [27] 6.92% | viability, T/C [28] 5.22% | viability, T/C [29] 2.69% | viability, T/C [30] 1.55% | viability, T/C [33] 7.06% | viability, T/C [34] 3.56% | viability, T/C [35] 2.83% | viability, T/C [36] 2.09%
< 3.16 nM: IC50 (second compound 0.316 µM) | IC50 (second compound 1 µM) | IC50 (second compound 3.16 µM) | IC50 (second compound 10 µM)
3.49 nM: IC50 (second compound 0.1 µM)

Nc1ccn(C2OC(CO)C(O)C2(F)F)c(=O)n1 (stereo not drawn) + Cc1cccc(N(C)C(=O)C2C(O)CCN2c2nc(C)cc(C(F)(F)F)c2C#N)c1
85.7 nM: IC50 (second compound 1 µM)
101 nM: IC50 (second compound 0.1 µM)
76.9 nM: IC50 (second compound 0.316 µM)
69.8 nM: IC50 (second compound 10 µM)
78.9 nM: IC50 (second compound 0.0316 µM)
inactive: viability, T/C [3] 84.7% | viability, T/C [4] 41% | viability, T/C [5] 12.6% | viability, T/C [9] 86.4% | viability, T/C [10] 50.5% | viability, T/C [11] 13.6% | viability, T/C [15] 81.7% | viability, T/C [16] 40.7% | viability, T/C [17] 11.9% | viability, T/C [21] 83.7% | viability, T/C [22] 44.8% | viability, T/C [23] 12% | viability, T/C [27] 86.5% | viability, T/C [28] 39.4% | viability, T/C [29] 14.8% | viability, T/C [33] 84.5% | viability, T/C [34] 34.4% | viability, T/C [35] 13.3% | viability, T/C [36] 12.7%
77.1 nM: IC50 (second compound 3.16 µM)
active: viability, T/C [6] 12.4% | viability, T/C [37] 8.52% | viability, T/C [38] 7.11% | viability, T/C [12] 9.98% | viability, T/C [39] 8.34% | viability, T/C [40] 6.1% | viability, T/C [18] 10.9% | viability, T/C [41] 8.07% | viability, T/C [42] 5.67% | viability, T/C [24] 11.7% | viability, T/C [43] 8.68% | viability, T/C [44] 6.87% | viability, T/C [30] 10.2% | viability, T/C [45] 10.4% | viability, T/C [46] 6.57% | viability, T/C [47] 8.82% | viability, T/C [48] 8.17%

O=C(c1cc(Cc2n[nH]c(=O)c3ccccc23)ccc1F)N1CCN(C(=O)C2CC2)CC1 + Cc1cccc(N(C)C(=O)C2C(O)CCN2c2nc(C)cc(C(F)(F)F)c2C#N)c1
inactive: viability, T/C [3] 117% | viability, T/C [4] 114% | viability, T/C [5] 117% | viability, T/C [6] 107% | viability, T/C [37] 101% | viability, T/C [38] 80.1% | viability, T/C [9] 111% | viability, T/C [10] 103% | viability, T/C [11] 108% | viability, T/C [12] 109% | viability, T/C [39] 101% | viability, T/C [40] 75.3% | viability, T/C [15] 105% | viability, T/C [16] 95% | viability, T/C [17] 110% | viability, T/C [18] 111% | viability, T/C [41] 103% | viability, T/C [42] 76.8% | viability, T/C [21] 104% | viability, T/C [22] 108% | viability, T/C [23] 111% | viability, T/C [24] 107% | viability, T/C [43] 106% | viability, T/C [44] 81.2% | viability, T/C [27] 93.8% | viability, T/C [28] 103% | viability, T/C [29] 120% | viability, T/C [30] 103% | viability, T/C [45] 105% | viability, T/C [46] 66.9% | viability, T/C [33] 109% | viability, T/C [34] 113% | viability, T/C [35] 114% | viability, T/C [36] 106% | viability, T/C [47] 96.7% | viability, T/C [48] 65.1%
> 10000 nM: IC50 (second compound 0.0316 µM) | IC50 (second compound 0.1 µM) | IC50 (second compound 0.316 µM) | IC50 (second compound 1 µM) | IC50 (second compound 3.16 µM) | IC50 (second compound 10 µM)
